From patent US8247211B2, “Glycopeptide antibiotics” (American Cyanamid Company, priority 2001, dated 2012)

Columns and labels:
[1] = tested on: Staphylococcus aureus-SMITH (GC 4543); assay: Acute lethal infection in mice (ED50); type: in vivo; conditions: female CD-1 mice, intraperitoneal challenge, intravenous dose 30 min. after infection, 7 day survival ratios
Summary of the method: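 ED50 derived from pooled 7-day survival in three separate experiments, five mice per dose level. Single intravenous dose 30 min after intraperitoneal infection of female CD-1 mice with enough bacteria to kill untreated animals in 24-48 h.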

[2] = Anatomic pathology (heart and kidney histopathology) in mice; type: in vivo, CD-1 mice; conditions: 20 mg/kg intravenously daily for 9 days, microscopic histopathology on day 10
Summary of the method: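 Histopathology on H&E-stained, paraffin-embedded sections, subjectively scored (slight, mild, moderate, marked, severe) relative to untreated controls. Dosing: glycopeptide antibiotics 20 mg/kg intravenously once daily ×9 days in 20-day-old CD-1 mice, n=5 per group including vehicle.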

[3] = tested on: Streptococcus sp.; assay: In vitro antibacterial evaluation: minimum inhibitory concentration (MIC), broth dilution method; type: cell-based
Summary of the method: (§1)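 Following NCCLS approved standard M7-A2, compounds are serially diluted from 64 to 0.06 μg/mL in Muller-Hinton II […] and inoculated at 5×10^5 CFU/mL; the MIC is the minimum concentration at which growth is inhibited.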

[4] = tested on: Staphylococcus sp.; assay: as above; type: cell-based
Summary of the method: as §1

[5] = tested on: Escherichia coli; assay: as above; type: cell-based
Summary of the method: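 Test strains, among them recent clinical isolates carrying methicillin, penicillin and/or vancomycin resistance, were inoculated at 5×10^5 CFU/mL. A broth dilution series spanning 64-0.06 μg/mL in Muller-Hinton II […] (NCCLS M7-A2) defined the MIC as the lowest growth-inhibiting concentration.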

[6] = tested on: Enterococcus sp.; assay: as above; type: cell-based
Summary of the method: as §1

[7] = broth dilution, 5×10^5 CFU/mL, 18 hours at 35° C.
[8] = broth dilution, inoculum 5×10^5 CFU/mL, 18 hours at 35° C.

CC(c1ccccc1)C1NC(=O)CNC(=O)C(CO)NC(=O)C(C(O)C2CNC(=N)N2C2OC(CO)C(O)C(O)C2O)NC(=O)C(C(O)C2CNC(=N)N2)NC(=O)C(Cc2ccc(OC3OC(CO)C(OC4OC5COC(c6ccc(C(=O)O)cc6)OC5C(O)C4O)C(O)C3O)cc2)NC1=O (stereo not drawn) [Example 141, Cyclo[glycyl-β-methylphenylalanyl-O-[4-O-[4,6-O-(4-carboxybenzylidene)hexopyranosyl]-hexopyranosyl]tyrosyl-3-(2-iminoimidazolidin-4-yl)seryl-3-(3-hexopyranosyl-2-iminoimidazolidin-4-yl)serylseryl]]
0: Anatomical Pathology (Day 10), Heart [2]
>8: median effective dose (ED50), Staphylococcus aureus-SMITH (GC 4543) [1]
>64 µg/mL: MIC Streptococcus pneumoniae (ATCC 6301) ([3]; strain ATCC 6301) | MIC Streptococcus pneumoniae (GC 1894) ([3]; strain GC 1894) | MIC Streptococcus pyogenes (GC 4563) ([3]; strain GC 4563) | MIC Streptococcus agalactiae (GC 4564) ([3]; strain GC 4564) | MIC Streptococcus pneumoniae (GC 4565) ([3]; strain GC 4565) | MIC Coagulase Negative Staphylococcus (GC 4547) [4, 7] | MIC Coagulase Negative Staphylococcus (GC 4548) [4, 7] | MIC Coagulase Negative Staphylococcus (GC 4549) [4, 7] | MIC Coagulase Negative Staphylococcus (GC 4551) [4, 7] | MIC Coagulase Negative Staphylococcus (GC 6257) [4, 7] | MIC Staphylococcus aureus (ATCC 29213) [4, 7] | MIC Staphylococcus aureus (GC 1131) [4, 7] | MIC Staphylococcus aureus (GC 3051) [4, 7] | MIC Staphylococcus aureus (GC 3053) [4, 7] | MIC Staphylococcus aureus (GC 4541) [4, 7] | MIC Staphylococcus aureus (GC 4542) [4, 7] | MIC Staphylococcus aureus (GC 4544) [4, 7] | MIC Staphylococcus aureus (GC 4545) [4, 7] | MIC Staphylococcus aureus-SMITH (GC 4543) [4, 7] | MIC Staphylococcus haemolyticus (GC 4546) [4, 7] | MIC Staphylococcus aureus (ATCC 29213) ([4]; strain ATCC 29213, broth dilution, 18 hours at 35° C.) | MIC Staphylococcus aureus (GC 1131) ([4]; strain GC 1131, broth dilution, 18 hours at 35° C.) | MIC Staphylococcus aureus (GC 3051) ([4]; strain GC 3051, broth dilution, 18 hours at 35° C.) | MIC Staphylococcus aureus (GC 3053) ([4]; strain GC 3053, broth dilution, 18 hours at 35° C.) | MIC Staphylococcus aureus (GC 4541) ([4]; strain GC 4541, broth dilution, 18 hours at 35° C.) | MIC Staphylococcus aureus (GC 4542) ([4]; strain GC 4542, broth dilution, 18 hours at 35° C.) | MIC Staphylococcus aureus-SMITH (GC 4543) ([4]; strain GC 4543, broth dilution, 18 hours at 35° C.) | MIC Staphylococcus aureus (GC 4544) ([4]; strain GC 4544, broth dilution, 18 hours at 35° C.) | MIC Staphylococcus aureus (GC 4545) ([4]; strain GC 4545, broth dilution, 18 hours at 35° C.) | MIC Staphylococcus haemolyticus (GC 4546) ([4]; strain GC 4546, broth dilution, 18 hours at 35° C.) | MIC Coagulase Negative Staphylococcus (GC 4547) ([4]; strain GC 4547, broth dilution, 18 hours at 35° C.) | MIC Coagulase Negative Staphylococcus (GC 4548) ([4]; strain GC 4548, broth dilution, 18 hours at 35° C.) | MIC Coagulase Negative Staphylococcus (GC 4549) ([4]; strain GC 4549, broth dilution, 18 hours at 35° C.) | MIC Coagulase Negative Staphylococcus (GC 4551) ([4]; strain GC 4551, broth dilution, 18 hours at 35° C.) | MIC Coagulase Negative Staphylococcus (GC 6257) ([4]; strain GC 6257, broth dilution, 18 hours at 35° C.) | MIC Escherichia coli (ATCC 25922) ([5]; strain ATCC 25922) | MIC Escherichia coli (GC 4559) ([5]; strain GC 4559) | MIC Escherichi coli (GC 4560) ([5]; strain GC 4560) | MIC Enterococcus faecalis (ATCC 29212) ([6]; strain ATCC 29212) | MIC Enterococcus faecalis (GC 2242) ([6]; strain GC 2242) | MIC Enterococcus faecium (GC 2243) ([6]; strain GC 2243) | MIC Enterococcus faecalis (GC 2691) ([6]; strain GC 2691) | MIC Enterococcus faecalis (GC 3059) ([6]; strain GC 3059) | MIC Enterococcus faecalis (GC 4552) ([6]; strain GC 4552) | MIC Enterococcus faecalis (GC 4553) ([6]; strain GC 4553) | MIC Enterococcus faecalis (GC 4554) ([6]; strain GC 4554) | MIC Enterococcus faecium (GC 4556) ([6]; strain GC 4556) | MIC Enterococcus avium (GC 4558) ([6]; strain GC 4558) | MIC Enterococcus faecalis (GC 6189) ([6]; strain GC 6189)
64 µg/mL: MIC Enterococcus faecium (GC 4557) ([6]; strain GC 4557)
+++: Anatomical Pathology (Day 10), Kidney [2]

CC(c1ccccc1)C1NC(=O)CNC(=O)C(CO)NC(=O)C(CC2CNC(=N)N2C2OC(CO)C(O)C(O)C2O)NC(=O)C(CC2CNC(=N)N2)NC(=O)C(Cc2ccc(OC3OC(CO)C(OC4OC5COC6(OC5C(O)C4O)C4CC5CC(C4)CC6C5)C(O)C3O)cc2)NC1=O (stereo not drawn) [Example 219]
8 µg/mL: MIC Staphylococcus aureus (GC 4544) ([4]; strain GC 4544) | MIC Enterococcus faecalis (GC 2242) ([6]; Enterococcus faecalis (GC 2242), 18 hours at 35° C.) | MIC Enterococcus faecalis (GC 2691) ([6]; Enterococcus faecalis (GC 2691), 18 hours at 35° C.) | MIC Enterococcus faecalis (GC 4552) ([6]; Enterococcus faecalis (GC 4552), 18 hours at 35° C.) | MIC Enterococcus faecalis (GC 4553) ([6]; Enterococcus faecalis (GC 4553), 18 hours at 35° C.) | MIC Enterococcus faecalis (GC 4554) ([6]; Enterococcus faecalis (GC 4554), 18 hours at 35° C.) | MIC Enterococcus faecalis (GC 6189) ([6]; Enterococcus faecalis (GC 6189), 18 hours at 35° C.) | MIC Enterococcus faecium (GC 2243) ([6]; Enterococcus faecium (GC 2243), 18 hours at 35° C.) | MIC Enterococcus faecium (GC 4556) ([6]; Enterococcus faecium (GC 4556), 18 hours at 35° C.) | MIC Enterococcus faecalis (GC 2242) [6, 8] | MIC Enterococcus faecalis (GC 2691) [6, 8] | MIC Enterococcus faecalis (GC 4552) [6, 8] | MIC Enterococcus faecalis (GC 4553) [6, 8] | MIC Enterococcus faecalis (GC 4554) [6, 8] | MIC Enterococcus faecalis (GC 6189) [6, 8] | MIC Enterococcus faecium (GC 2243) [6, 8] | MIC Enterococcus faecium (GC 4556) [6, 8]
0: Anatomical Pathology (Day 10), Heart [2]
0.5 µg/mL: MIC Streptococcus pneumoniae (ATCC 6301) ([3]; Streptococcus pneumoniae (ATCC 6301), 18 hours at 35° C.) | MIC Streptococcus pneumoniae (ATCC 6301) [3, 8]
64 µg/mL: MIC Escherichia coli (ATCC 25922) ([5]; Escherichia coli (ATCC 25922), 18 hours at 35° C.) | MIC Escherichia coli (GC 4559) ([5]; Escherichia coli (GC 4559), 18 hours at 35° C.)
16 µg/mL: MIC Enterococcus faecalis (ATCC 29212) ([6]; Enterococcus faecalis (ATCC 29212), 18 hours at 35° C.) | MIC Enterococcus faecalis (GC 3059) ([6]; Enterococcus faecalis (GC 3059), 18 hours at 35° C.) | MIC Enterococcus faecalis (ATCC 29212) [6, 8] | MIC Enterococcus faecalis (GC 3059) [6, 8]
4 µg/mL: MIC Staphylococcus aureus (ATCC 29213) ([4]; strain ATCC 29213) | MIC Staphylococcus aureus (GC 1131) ([4]; strain GC 1131) | MIC Coagulase Negative Staphylococcus (GC 4551) ([4]; strain GC 4551) | MIC Escherichia coli (GC 4560) ([5]; Escherichia coli (GC 4560), 18 hours at 35° C.) | MIC Enterococcus avium (GC 4558) ([6]; Enterococcus avium (GC 4558), 18 hours at 35° C.) | MIC Enterococcus faecium (GC 4557) ([6]; Enterococcus faecium (GC 4557), 18 hours at 35° C.) | MIC Enterococcus avium (GC 4558) [6, 8] | MIC Enterococcus faecium (GC 4557) [6, 8]
2 µg/mL: MIC Streptococcus agalactiae (GC 4564) ([3]; Streptococcus agalactiae (GC 4564), 18 hours at 35° C.) | MIC Streptococcus pneumoniae (GC 4565) ([3]; Streptococcus pneumoniae (GC 4565), 18 hours at 35° C.) | MIC Streptococcus pyogenes (GC 4563) ([3]; Streptococcus pyogenes (GC 4563), 18 hours at 35° C.) | MIC Streptococcus agalactiae (GC 4564) [3, 8] | MIC Streptococcus pneumoniae (GC 4565) [3, 8] | MIC Streptococcus pyogenes (GC 4563) [3, 8] | MIC Staphylococcus aureus (GC 3051) ([4]; strain GC 3051) | MIC Staphylococcus aureus (GC 3053) ([4]; strain GC 3053) | MIC Staphylococcus aureus (GC 4541) ([4]; strain GC 4541) | MIC Staphylococcus aureus (GC 4542) ([4]; strain GC 4542) | MIC Staphylococcus aureus-SMITH (GC 4543) ([4]; strain GC 4543) | MIC Staphylococcus aureus (GC 4545) ([4]; strain GC 4545) | MIC Staphylococcus haemolyticus (GC 4546) ([4]; strain GC 4546) | MIC Coagulase Negative Staphylococcus (GC 4547) ([4]; strain GC 4547) | MIC Coagulase Negative Staphylococcus (GC 4548) ([4]; strain GC 4548) | MIC Coagulase Negative Staphylococcus (GC 4549) ([4]; strain GC 4549)
1 µg/mL: MIC Streptococcus pneumoniae (GC 1894) ([3]; Streptococcus pneumoniae (GC 1894), 18 hours at 35° C.) | MIC Streptococcus pneumoniae (GC 1894) [3, 8] | MIC Coagulase Negative Staphylococcus (GC 6257) ([4]; strain GC 6257)
+++: Anatomical Pathology (Day 10), Kidney [2]
0.5 mg/kg: median effective dose (ED50), Staphylococcus aureus-SMITH (GC 4543) [1]
